Data reported in publication PMC12703733, “Probing Guanidino Pendant or Bridged Groups in Cyclic Antimicrobial Peptides Derived from Temporin L: A Strategy to Improve Efficacy against Gram-Negative Bacteria” (Journal of Medicinal Chemistry, 2025).
Converted amounts (≈) assume the structure as drawn. Where two headings read alike, the source gives them in different places. Bridge positions count the residues as written; N and C are the ends. Square brackets hold non-standard residues; d marks the D form. Peptide text beside a SMILES is read from it. Phe(4-guanidino) = N=C(N)Nc1ccc(C[C@H](N)C(=O)O)cc1

Assays:
[1] = format: cell-based, human; conditions: human
Description: (§1) For the evaluation of peptides’ cytotoxicity, the human immortalized keratinocytes (HaCaT cells), purchased from AddexBio (San Diego, CA, USA), and BEAS-2B were used. HaCaT cells were cultured in Dulbecco’s modified Eagle’s medium supplemented with 4 mM glutamine (DMEM), 10% heat-inactivated fetal bovine serum (FBS), and 0.1 mg/mL of penicillin and streptomycin, at 37 °C and 5% CO2. BEAS-2B cells were cultured in RPMI, supplemented with 2 mM glutamine (DMEM), 10% heat-inactivated fetal bovine serum (FBS), 1 mM sodium pyruvate, and 0.1 mg/mL of penicillin and streptomycin, at 37 °C and 5% CO2. Cytotoxicity was tested in vitro using a colorimetric assay that relies on the intracellular reduction of the yellow 3-(4,5-dimethylthiazol-2-yl)-2,5-diphenyltetrazolium bromide salt (MTT) by mitochondrial dehydrogenases of metabolically active cells in formazan crystals (purple). About 4 × 10^4 HaCaT and BEAS-2B cells, suspended in DMEM supplemented with 2% FBS, were plated in triplicate wells of a 96-well microtiter plate. The plate was incubated overnight at 37 °C and 5% CO2. Then, the cells were treated with different concentrations of the peptide (from 100 to 3.12 μM) in a fresh serum-free medium for 2 h and for a longer time (24 h). Following peptide treatment, the medium was removed, and MTT (0.5 mg/mL) solution in Hank’s buffer (136 mM NaCl, 4.2 mM Na2HPO4, 4.4 mM KH2PO4, 5.4 mM KCl, 4.1 mM NaHCO3, pH 7.2, supplemented with 20 mM D-glucose) was added to each well of the plate, that was then incubated for 4 h at 37 °C and 5% CO2. The purple formazan crystals were dissolved using acidified 2-propanol and a microplate reader (Infinite M200; Tecan, Salzburg, Austria) was used to measure the absorbance of each well at 570 nm. The percentage of cell viability was calculated compared to the control, which consisted of cells without any peptide treatment (corresponding to 100% viability) and all data represent the mean of three independent experiments ± SEM.

[2] = system: human keratinocytes (HaCaT cells); format: cell-based; conditions: human, 24 h
Description: as §1

[3] = circular dichroism; conditions: water; pH ns; 25 °C; 150 uM
[4] = system: B. megaterium BM11; experiment: microbe, parasite or virus in culture; format: cell-based; conditions: BM11
Description: (§2) Bacterial strains used in this study were the Gram-positive S. aureus ATCC 25923, S. epidermidis ATCC 12228, B. megaterium BM11, S. [NT] 27591, E. faecalis ATCC 29212 and the Gram-negative E. coli ATCC 25922, P. aeruginosa ATCC 27853, A. baumannii ATCC 19606, E. coli D21 and P. aeruginosa PAO1. […] Bacterial cells in the mid log phase were diluted in Muller Hinton (MH) at a concentration of 2 × 10^6 cell/mL. […] Ciprofloxacin was used as antibiotic control. The plate was then incubated at 37 °C. MICs were obtained from three identical readings of four independent experiments.

[5] = system: P. aeruginosa ATCC 27853; experiment: microbe, parasite or virus in culture; format: cell-based; conditions: ATCC 27853
Description: as §2

[6] = system: S. agalactiae ATCC 27591; experiment: microbe, parasite or virus in culture; format: cell-based; conditions: ATCC 27591
Description: as §2

[7] = system: E. faecalis ATCC 29212; experiment: microbe, parasite or virus in culture; format: cell-based; conditions: ATCC 29212
Description: as §2

[8] = system: E. coli D21; experiment: microbe, parasite or virus in culture; format: cell-based; conditions: D21
Description: as §2

[9] = system: S. epidermidis ATCC 12228; experiment: microbe, parasite or virus in culture; format: cell-based; conditions: ATCC 12228
Description: as §2

[10] = system: E. coli ATCC 25922; experiment: microbe, parasite or virus in culture; format: cell-based; conditions: ATCC 25922
Description: as §2

[11] = system: A. baumannii ATCC 19606; experiment: microbe, parasite or virus in culture; format: cell-based; conditions: ATCC 19606
Description: as §2

[12] = system: S. aureus ATCC 25923; experiment: microbe, parasite or virus in culture; format: cell-based; conditions: ATCC 25923
Description: as §2

[13] = format: cell-based; conditions: Cell viability (%)
Description: as §1

[14] = system: S. aureus ATCC 25923; format: cell-based
Description: The ability of peptides to alter the bacterial membrane permeability of planktonic cells of S. aureus ATCC 25923 and P. aeruginosa ATCC 27853 was determined by the Sytox Green assay. Approximately 1 × 10^6 cells in 100 μL of PBS were combined with 1 μM Sytox Green in the dark for 5 min. The fluorescence intensity was monitored using a microplate reader (Infinite M200, Tecan), with excitation and emission at λ = 485 and 535 nm, respectively. Peptides were added (time = 0) at three different concentrations (i.e., 3.12, 6.25, and 12.5 μM). Increase in the fluorescence intensity is due to the binding of the dye to intracellular nucleic acids. Controls consisted of cells that were not exposed to the peptides. The values correspond to one representative experiment out of three independent experiments.

[15] = in vitro; format: in vitro ADME; conditions: isolated enzyme chymotrypsin, pH 7.8
Description: Peptide stability was evaluated by modifying previously described procedures. , The assays were performed in human serum and in the presence of proteolytic enzymes such as trypsin and chymotrypsin. For human serum stability, 2 mM peptide stock solutions were prepared in water and mixed with human serum (from male AB plasma, USA origin, sterile-filtered, Merck/Sigma-Aldrich, USA) to obtain a final concentration of 200 μM [human plasma/stock solution (9:1, v/v)]. The mixtures were incubated at 37 ± 1 °C, and 50 μL aliquots were taken at predetermined time intervals (0, 1, 2, 4, 8, and 24 h). Protease activity was quenched by adding 100 μL of acetonitrile (MeCN). The resulting cloudy suspensions were cooled to 4 °C for 30 min and centrifugated at 12,000 rpm for 10 min to remove the serum proteins. Then, the supernatants were analyzed by analytical HPLC (Shimadzu Nexera Liquid Chromatograph LC-30AD) which was equipped with a Phenomenex Kinetex reversed-phase column (C18, 5 μm, 100 Å, 150 mm × 4.6 mm) with a flow rate of 1 mL/min using a gradient of MeCN (0.1% TFA) in water (0.1% TFA), from 10 to 70% over 15 min, and UV detection at 220 nm. For enzyme stability, each peptide peptide (200 μM) was incubated with trypsin (0.5 μM) in PBS 1× (pH 7.2) or with chymotrypsin (0.005 μM) in Tris–HCl (100 mM, pH 7.8). Samples (50 μL) were collected at 0, 1, 2, 4, and 24 h, quenched with 0.5% TFA in water, and analyzed by HPLC under chromatographic conditions as described above. All experiments were conducted in triplicate. The percentage of intact peptides at each time point was determined by integrating the corresponding HPLC peak areas.

Work on CC[C@H](C)[C@H](NC(=O)[C@H](CCCNC(=N)N)NC(=O)[C@H]1CCC(=O)NCCCC[C@H](NC(=O)[C@H](Cc2ccccc2)NC(=O)[C@H](Cc2c[nH]c3ccccc23)NC(=O)[C@@H]2CCCN2C(=O)[C@@H](NC(=O)[C@@H](N)Cc2ccc(NC(=N)N)cc2)C(C)C)C(=O)N[C@@H](CCCCN)C(=O)N[C@@H](Cc2ccccc2)C(=O)N[C@H](CC(C)C)C(=O)N1)C(=O)N[C@@H](CC(C)C)C(N)=O [Peptide 6, (p-guanidino)FVPWF[KKFle]RIL] (H-[Phe(4-guanidino)]VPWFKKF[dL][dE]RIL-NH2; lactam 6-10) yielded a CC50 at 24 h ([1]; CC50) of over 50 µM, a viability at 2 h, 3.12 µM ([1]; Cell viability (%)) of 102% and a viability at 2 h, 6.25 µM ([1]; Cell viability (%)) of 101%. The viability at 2 h, 12.5 µM ([1]; Cell viability (%)) was 101%, the viability at 2 h, 25 µM ([1]; Cell viability (%)) was 101% and the viability at 2 h, 100 µM ([1]; Cell viability (%)) was 13%. For the same compound, the viability at 24 h, 3.12 µM ([1]; Cell viability (%)) was 100 ± 2%, the viability at 24 h, 6.25 µM ([1]; Cell viability (%)) was 93 ± 2% and the viability at 24 h, 12.5 µM ([1]; Cell viability (%)) was 86 ± 4%. It also gave a viability at 24 h, 25 µM ([1]; Cell viability (%)) of 86 ± 2%, a viability at 24 h, 50 µM ([1]; Cell viability (%)) of over 70% and a viability at 24 h, 100 µM ([1]; Cell viability (%)) of 2 ± 1%. The CC50 [2] was 59.6 µM, the “Cell viability (%)” value ([2]; 50 µM) was 81 ± 4% and the helicity [3] was 16%. It also gave an MIC [4] of 0.78 µM (≈ 1.37 µg/mL), an MIC [5] of 25 µM (≈ 44 µg/mL) and an MIC [6] of 1.56 µM (≈ 2.75 µg/mL). It also gave an MIC [7] of 12.5 µM (≈ 22 µg/mL), an MIC [8] of 3.12 µM (≈ 5.49 µg/mL) and an MIC [9] of 3.12 µM (≈ 5.49 µg/mL). The MIC [10] was 6.25 µM (≈ 11 µg/mL), the MIC [11] was 3.12 µM (≈ 5.49 µg/mL) and the MIC [12] was 25 µM (≈ 44 µg/mL). The viability at 2 h, 3.12 µM [13] was 111%, the viability at 2 h, 6.25 µM [13] was 119% and the viability at 2 h, 12.5 µM [13] was 114%. The viability at 2 h, 25 µM [13] was 100%, the viability at 2 h, 50 µM [13] was 30% and the viability at 24 h, 3.12 µM [13] was 104%. The viability at 24 h, 6.25 µM [13] was 111%, the viability at 24 h, 12.5 µM [13] was 111% and the viability at 24 h, 25 µM [13] was 107%. For the same compound, the viability at 24 h, 50 µM [13] was 33%, the viability at 24 h, 100 µM [13] was 4% and the “membrane permeabilization, Sytox Green fluorescence (in words)” value [14] was “lower effect”. For the same compound, the remaining at 4 h, 200 μM [15] was about 20%.
